Some test systems named below: NCI-H522 lung; SF-295 CNS; HCT-15 colon; CCRF-CEM leukemia; LOX IMVI melanoma; SW-620 colon; MOLT-4 leukemia; UO-31 renal; OVCAR-5 ovarian; IGROV1 ovarian.
Common to all, as to assay: inhibition of tumour cell growth, NCI panel, 48 h

Data on 12 molecules can be found in PubChem BioAssay (NCI).

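Five concentrations, 48 hours, 96-well plates. Here, GI50 denotes the concentration required for 50% inhibition of growth. At the TGI there is no net growth.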

`Cc1cc(N[C@@H]2CCC[C@H](Nc3ccnc4cc(Cl)ccc34)C2)nc(N2CCCCCC2)n1`: the GI50 in the experiment with NCI-H522 lung was 1.93 µM; in the experiment with SF-295 CNS, 1.32 µM; in the experiment on HCT-15 colon it was 1.1 µM; with CCRF-CEM leukemia, 1.59 µM; in the experiment on LOX IMVI melanoma, 1.43 µM; in the experiment with SW-620 colon, 1.52 µM. Also, the values for the GI50 in the experiment with MOLT-4 leukemia, with UO-31 renal and in the experiment with OVCAR-5 ovarian were 1.6 µM, 1.13 µM and 2.06 µM, respectively. For the same molecule, the TGI with NCI-H522 lung was 4 µM; in the experiment with SF-295 CNS it was 2.74 µM; in the experiment with HCT-15 colon, 2.62 µM; with CCRF-CEM leukemia it was 10.7 µM; in the experiment with LOX IMVI melanoma it was 2.96 µM; in the experiment on SW-620 colon it was 3.28 µM. In addition, the TGI with MOLT-4 leukemia stood at 5.73 µM; with UO-31 renal, 2.4 µM; with OVCAR-5 ovarian, 6.26 µM.
For `O=c1c(F)cn(Cc2ccc(C34CC5CC(CC(C5)C3)C4)c(O)c2)c(=O)n1Cc1ccc(C23CC4CC(CC(C4)C2)C3)c(O)c1`, the GI50 in the experiment with NCI-H522 lung was 15.9 µM; in the experiment on SF-295 CNS, 16.9 µM; with HCT-15 colon, 13.6 µM; in the experiment on CCRF-CEM leukemia, 9.46 µM; with LOX IMVI melanoma it was 6.98 µM; in the experiment with SW-620 colon, 10.7 µM. The GI50 with MOLT-4 leukemia is 5.85 µM; in the experiment with UO-31 renal it was 17.5 µM; in the experiment with OVCAR-5 ovarian it was 13.5 µM. Also, the TGI was 32.9 µM in the experiment on NCI-H522 lung; 32.5 µM in the experiment on SF-295 CNS; 26.5 µM in the experiment on HCT-15 colon; more than 100 µM in the experiment on CCRF-CEM leukemia; 20 µM in the experiment with LOX IMVI melanoma; 26.4 µM in the experiment with SW-620 colon. For the same molecule, the TGI came out at 44.4 µM in the experiment on MOLT-4 leukemia, 41.4 µM in the experiment on UO-31 renal and 28.1 µM with OVCAR-5 ovarian.
Take `CCOC(=O)c1ccc(/C(C)=N/NC(N)=S)cc1`: the TGI in the experiment with SF-295 CNS, with HCT-15 colon, in the experiment on CCRF-CEM leukemia, in the experiment on LOX IMVI melanoma, in the experiment with IGROV1 ovarian and in the experiment on SW-620 colon was more than 100 µM each time. This molecule returned a TGI in the experiment with MOLT-4 leukemia of more than 100 µM.
As to `COc1cc(OC)c2c(=O)cc(-c3ccc(OC)c(OC)c3OC)oc2c1`, the TGI in the experiment on NCI-H522 lung, in the experiment on SF-295 CNS, in the experiment on HCT-15 colon, in the experiment on LOX IMVI melanoma, in the experiment with IGROV1 ovarian and with SW-620 colon was more than 100 µM throughout. This molecule displayed a TGI in the experiment on OVCAR-5 ovarian of more than 100 µM.
As to `O=C(OC1CCC(=C2SCCCS2)[C@H]1C1SCCCS1)c1ccccc1` (stereo partly drawn), the TGI in the experiment on SF-295 CNS, in the experiment on HCT-15 colon, in the experiment with CCRF-CEM leukemia, in the experiment with LOX IMVI melanoma, in the experiment on IGROV1 ovarian and with SW-620 colon was more than 100 µM each time. Also, the TGI in the experiment on MOLT-4 leukemia and in the experiment with UO-31 renal was more than 100 µM in each case.
`C=CCCCCC1CCC2CCC(CCCCC=C)N12` (stereo not drawn): the TGI is 28.3 µM in the experiment on NCI-H522 lung; 26.4 µM in the experiment on SF-295 CNS; 19.4 µM in the experiment on HCT-15 colon; 37.7 µM in the experiment with CCRF-CEM leukemia; 32.9 µM in the experiment with SW-620 colon; 36.3 µM in the experiment on MOLT-4 leukemia. The TGI with UO-31 renal turned out to be 27.4 µM.
Turning to `Cc1ccc2nc(/C(=C/c3ccc(/C=C(\NC(=O)c4ccccc4)c4nc5ccc(C)cc5[nH]4)c(C)c3)NC(=O)c3ccccc3)[nH]c2c1`, the TGI with NCI-H522 lung was 42.6 µM; in the experiment on HCT-15 colon, more than 100 µM; with CCRF-CEM leukemia it was 41.9 µM; in the experiment on IGROV1 ovarian, more than 100 µM; in the experiment on SW-620 colon, more than 100 µM; in the experiment on MOLT-4 leukemia it was 26.7 µM. The TGI in the experiment with UO-31 renal was 30.8 µM; with OVCAR-5 ovarian it was 33.8 µM.
`O=C(Nc1cccc(Cl)c1)C(=O)C(C(=O)c1ccc2ccccc2c1)C1OC(=O)c2ccccc21` (stereo not drawn): the TGI in the experiment on CCRF-CEM leukemia amounted to 52.4 µM; in the experiment with LOX IMVI melanoma, 44.5 µM; in the experiment on IGROV1 ovarian, 96.3 µM; in the experiment with SW-620 colon, 80.9 µM; in the experiment with MOLT-4 leukemia it was 23.6 µM; in the experiment on UO-31 renal it was 29.9 µM. This molecule came in with a TGI in the experiment on OVCAR-5 ovarian of 59.6 µM.
Consider `CCOC(=O)N[C@H]1CCc2cc(OC)c(OC)c(OC)c2-c2ccc(SC)c(=O)cc21`, for which the TGI in the experiment with HCT-15 colon, in the experiment with CCRF-CEM leukemia, in the experiment with LOX IMVI melanoma, with IGROV1 ovarian, with SW-620 colon and in the experiment with MOLT-4 leukemia was more than 100 µM throughout. Further, the TGI with UO-31 renal and with OVCAR-5 ovarian was more than 100 µM each time. Further, the GI50 in the experiment on UO-31 renal is 0.254 µM; in the experiment on OVCAR-5 ovarian it was less than 0.01 µM.
For the molecule `COC(=O)C(=Cc1cc(OC)c(OC)c(OC)c1-c1cc2c(cc1C1(C)OCCS1)OCO2)C(=O)OC` (stereo not drawn), the TGI was 55.5 µM with NCI-H522 lung; more than 100 µM with SF-295 CNS; more than 100 µM in the experiment on HCT-15 colon; more than 100 µM in the experiment with CCRF-CEM leukemia; more than 100 µM in the experiment on LOX IMVI melanoma; more than 100 µM in the experiment with IGROV1 ovarian. Besides, the TGI in the experiment with SW-620 colon, in the experiment on MOLT-4 leukemia and in the experiment with OVCAR-5 ovarian was more than 100 µM each time.
`Nc1ncn([C@@H]2O[C@H](CO)[C@@H](O)[C@H]2O)c(=O)n1`: the GI50 was 1.29 µM with NCI-H522 lung; 2.28 µM with SF-295 CNS; 1.6 µM with HCT-15 colon; 1.95 µM in the experiment with CCRF-CEM leukemia; 0.292 µM with LOX IMVI melanoma; 1.71 µM in the experiment with SW-620 colon. In addition, the GI50 with MOLT-4 leukemia is 3.41 µM; in the experiment with UO-31 renal, 1.1 µM; with OVCAR-5 ovarian it was 2.57 µM. Besides, the TGI was 5.84 µM with NCI-H522 lung; 58.7 µM with SF-295 CNS; 21.1 µM in the experiment with HCT-15 colon; more than 100 µM in the experiment on CCRF-CEM leukemia; 2.1 µM with LOX IMVI melanoma; more than 100 µM with SW-620 colon. In addition, the values for the TGI in the experiment on MOLT-4 leukemia, in the experiment on UO-31 renal and in the experiment with OVCAR-5 ovarian were 32.1 µM, 9.97 µM and more than 100 µM, respectively.
`O=C(Nc1cccc(C(F)(F)F)c1)c1ccc(NC2=C(Cl)C(=O)N(Cc3ccc(Cl)cc3Cl)C2=O)cc1`: the GI50 in the experiment with NCI-H522 lung was 3.34 µM; in the experiment on SF-295 CNS, 13 µM; with HCT-15 colon, 2.31 µM; in the experiment with CCRF-CEM leukemia, 2.27 µM; with LOX IMVI melanoma it was 1.63 µM; with IGROV1 ovarian it was 2.01 µM. In addition, the GI50 in the experiment with SW-620 colon was 2.12 µM; in the experiment on MOLT-4 leukemia it was 1.31 µM. The TGI in the experiment on NCI-H522 lung is 10.2 µM; in the experiment on SF-295 CNS, 35 µM; with HCT-15 colon, 5.66 µM; in the experiment on CCRF-CEM leukemia, 5.46 µM; with LOX IMVI melanoma it was 3.44 µM; in the experiment with IGROV1 ovarian, 4.56 µM. The TGI in the experiment with SW-620 colon stood at 6.05 µM; in the experiment on MOLT-4 leukemia it was 6.8 µM.
